Experiments:
SH2 domain of Lck = SH2 domain of Lck (Homo sapiens, UniProt P06239); details: read-out: IC50 towards the SH2 domain of Lck; cited from earlier work
STAT5 = target: T1, STAT5 (Homo sapiens, UniProt P42229+P51692); set-up: endogenous in cells; host or cells: K562 nuclear extract; details: K562 nuclear extract; cited from earlier work
T1 sequence (P42229 1-794): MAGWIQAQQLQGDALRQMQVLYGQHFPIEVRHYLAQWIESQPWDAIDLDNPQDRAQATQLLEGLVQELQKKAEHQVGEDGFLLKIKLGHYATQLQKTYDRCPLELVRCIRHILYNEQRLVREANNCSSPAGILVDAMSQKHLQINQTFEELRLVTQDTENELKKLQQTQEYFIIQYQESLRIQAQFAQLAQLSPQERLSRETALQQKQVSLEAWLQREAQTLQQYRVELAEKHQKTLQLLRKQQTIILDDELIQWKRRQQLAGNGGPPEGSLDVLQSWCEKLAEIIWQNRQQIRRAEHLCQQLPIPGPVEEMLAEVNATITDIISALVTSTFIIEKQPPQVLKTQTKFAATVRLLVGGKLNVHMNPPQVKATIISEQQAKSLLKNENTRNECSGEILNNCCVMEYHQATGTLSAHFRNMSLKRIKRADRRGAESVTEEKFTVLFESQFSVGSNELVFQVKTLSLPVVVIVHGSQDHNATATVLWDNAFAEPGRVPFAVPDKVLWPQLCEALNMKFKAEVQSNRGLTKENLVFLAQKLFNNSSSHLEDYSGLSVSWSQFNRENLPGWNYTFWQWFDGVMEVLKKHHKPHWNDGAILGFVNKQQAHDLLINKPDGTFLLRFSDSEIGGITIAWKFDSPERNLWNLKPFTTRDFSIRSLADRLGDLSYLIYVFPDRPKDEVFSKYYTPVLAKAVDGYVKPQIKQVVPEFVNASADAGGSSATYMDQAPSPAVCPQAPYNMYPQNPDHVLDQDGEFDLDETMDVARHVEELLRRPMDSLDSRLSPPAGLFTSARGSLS
T1 sequence (P51692 1-787): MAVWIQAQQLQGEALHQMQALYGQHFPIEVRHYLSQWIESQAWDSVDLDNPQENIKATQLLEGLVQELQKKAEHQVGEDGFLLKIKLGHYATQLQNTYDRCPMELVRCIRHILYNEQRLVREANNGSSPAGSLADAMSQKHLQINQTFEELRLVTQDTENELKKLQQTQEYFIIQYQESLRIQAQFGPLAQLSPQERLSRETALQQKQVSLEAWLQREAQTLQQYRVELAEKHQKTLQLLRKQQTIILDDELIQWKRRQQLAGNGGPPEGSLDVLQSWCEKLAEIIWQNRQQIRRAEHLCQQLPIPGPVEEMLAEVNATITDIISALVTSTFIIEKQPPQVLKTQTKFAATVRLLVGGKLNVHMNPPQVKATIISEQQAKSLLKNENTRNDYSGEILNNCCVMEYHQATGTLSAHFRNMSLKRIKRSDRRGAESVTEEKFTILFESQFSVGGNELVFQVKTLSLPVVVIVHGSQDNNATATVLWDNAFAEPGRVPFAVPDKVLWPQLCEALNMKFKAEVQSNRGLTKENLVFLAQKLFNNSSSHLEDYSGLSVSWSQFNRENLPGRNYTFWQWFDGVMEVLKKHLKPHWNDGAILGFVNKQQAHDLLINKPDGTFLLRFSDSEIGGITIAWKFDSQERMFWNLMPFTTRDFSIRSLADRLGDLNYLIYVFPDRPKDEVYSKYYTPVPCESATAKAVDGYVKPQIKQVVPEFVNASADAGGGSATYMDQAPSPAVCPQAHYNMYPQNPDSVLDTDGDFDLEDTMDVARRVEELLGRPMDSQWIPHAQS

SH2 domain of STAT3 = SH2 domain of STAT3 (Homo sapiens, UniProt P40763); details: read-out: IC50 towards the SH2 domain of STAT3; cited from earlier work
[1] = weight changes in rat AIA model; type: in vivo, rats
Procedure: FIG. 4 is a graph depicting weight changes in four groups of rat AIA models under different treatment schemes. Vehicle refers to the group of AIA model rats treated with DMSO. Therapeutic refers to the group of AIA model rats treated with pimozide (Sigma-Aldrich) 10 mg/kg in 30% PEG300 solution starting from day 13. Prophylactic refers to the group of AIA model rats treated with pimozide (Sigma-Aldrich) 10 mg/kg in 30% PEG300 solution starting from day 0. Normal refers to the group of rats without AIA model inducement.
Three groups (10 rats in each group) of female rats (age 8 weeks) were subject to AIA model induction and then to different treatment schemes. Specifically, 100 ug mBSA mixed with CFA was injected s.c. to flank near tail, and one dose of B. pertusiss was injected i.p. the next day to boost the immune reaction. The first of the three groups of rats were treated with DMSO (Vehicle). The second of the three groups of rats were treated with pimozide (Sigma-Aldrich) 10 mg/kg of body weight (same unit are used throughout this application) in 30% PEG300 solution via intraperitoneal injection with collagen injection starting from day 7 (Therapeutic). The last of the three groups of rats were treated with pimozide (Sigma-Aldrich) 10 mg/kg in 30% PEG300 solution via intraperitoneal injection either with collagen injection starting from day 0. […]

AIA mouse model = AIA mouse model (mBSA-induced knee arthritis); type: in vivo, mice (C57BL/6); details: 10 mg/kg intraperitoneal
Procedure: This example describes a method of RA treatment with pimozide in a AIA mouse model. The right knees of fourteen mice (C57BL/6) were immunized with mBSA injection on the right knee to induce arthritis, while the left knees were used as control. Nine of the mice was then treated with pimozide. Specifically, pimozide was dissolved in DMSO at a concentration of 50 mg/ml, and then diluted in 30% PEG300 (Sigma) for intraperitoneal injection at 10 mg/kg dose. The remaining five mice were treated with vehicle DMSO that is diluted in 30% PEG300 for intraperitoneal injection. After 7 days, the mice were sacrificed and knees were dissected and fixed in 10% formalin and decalcified in 5% formic acid before dehydration and embedding in paraffin followed by standard hematoxylin and eosin (H&E) stain procedure.

[2] = tested on: Chronic Myeloid Leukemia (CML) cell lines; details: cited from earlier work

Sequence of SH2 domain of STAT3 (P40763 whole entry, the tested form may be a part): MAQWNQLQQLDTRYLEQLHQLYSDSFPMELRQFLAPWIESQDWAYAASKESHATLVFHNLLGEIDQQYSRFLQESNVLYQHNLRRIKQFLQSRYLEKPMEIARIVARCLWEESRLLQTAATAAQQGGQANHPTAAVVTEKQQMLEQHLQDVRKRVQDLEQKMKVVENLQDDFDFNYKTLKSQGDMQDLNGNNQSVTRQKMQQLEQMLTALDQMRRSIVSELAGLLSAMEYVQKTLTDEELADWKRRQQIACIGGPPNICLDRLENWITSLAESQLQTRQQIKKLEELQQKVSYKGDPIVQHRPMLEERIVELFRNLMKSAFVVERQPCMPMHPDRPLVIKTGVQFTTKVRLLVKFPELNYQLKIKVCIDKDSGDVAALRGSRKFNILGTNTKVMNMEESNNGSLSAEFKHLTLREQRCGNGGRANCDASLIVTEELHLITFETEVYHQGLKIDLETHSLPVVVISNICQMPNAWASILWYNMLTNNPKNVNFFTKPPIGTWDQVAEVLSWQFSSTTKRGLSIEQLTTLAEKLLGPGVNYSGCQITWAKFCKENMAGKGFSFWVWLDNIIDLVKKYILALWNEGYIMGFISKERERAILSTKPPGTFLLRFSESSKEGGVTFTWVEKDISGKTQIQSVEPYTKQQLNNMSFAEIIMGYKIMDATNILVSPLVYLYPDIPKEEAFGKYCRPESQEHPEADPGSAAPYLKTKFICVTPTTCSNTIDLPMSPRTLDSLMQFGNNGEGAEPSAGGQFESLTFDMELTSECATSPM
Sequence of SH2 domain of Lck (P06239 120-226 limits assumed): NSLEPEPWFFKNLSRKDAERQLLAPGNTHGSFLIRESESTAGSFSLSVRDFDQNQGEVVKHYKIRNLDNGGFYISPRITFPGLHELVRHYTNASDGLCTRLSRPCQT

| weight changes vs Vehicle ([1]; Prophylactic group, 10 mg/kg i.p. from day 0, at each time point) | weight changes vs Vehicle ([1]; Therapeutic group, 10 mg/kg i.p., at each time point) | SMILES | IC50 (SH2 domain of Lck) [µM] | STAT5/STAT5 DNA binding activity (STAT5) | IC50 (SH2 domain of STAT3) [µM] | infiltration of immune cells in knee cavity (H&E staining) (AIA mouse model; after 7 days, vs vehicle) | knee diameter differences (right knee vs left knee) (AIA mouse model; vs vehicle group) | cell cycle arrest and apoptosis [2] |
| --- | --- | --- | --- | --- | --- | --- | --- | --- |
|  |  | O=C(N/N=C/c1coc2ccccc2c1=O)c1cccnc1 [nicotinohydrazide, N′-((4-Oxo-4H-chromen-3-yl)methylene)nicotinohydrazide] | > 500 | blocks | > 500 |  |  |  |
| No significant difference | No significant difference | O=c1[nH]c2ccccc2n1C1CCN(CCCC(c2ccc(F)cc2)c2ccc(F)cc2)CC1 [pimozide, 1-[1-[4,4-bis(4-fluorophenyl)butyl]-4-piperidinyl]-1,3-dihydro-2H-benzimidazole-2-one] |  |  |  | reduced infiltration of immune cells | significantly smaller | induces |

Reference: patent US11612595B2, “Compositions and methods for treating rheumatoid arthritis” (Generos Biopharma Ltd., priority 2017, dated 2023)
